Test results published in patent publication US4879381A, “7-(substituted or unsubstituted amino) 3-substituted methyl-^3 cephem-4-carboxylic acid” (Toyoma Chemical Company, Ltd., priority 1980, dated 1989).
Structures can show the parent of a compound that is named as a salt. Where two headings read alike, the source gives them in different places.

Columns and labels:
in vivo = details: mouse, intravenous, mice
Source text: Three test compounds were introvenously administered to mice (ICR, male, 4 weeks old) to test their acute toxicities.

E. coli NIHJ = assay: Antibacterial activity (MIC, agar plate, standard method of the Japanese Chemotherapeutic Society); type: cell-based; details: Escherichia coli, 10^4 cells/plate, 37° C., 20 hours, read-out: MIC
Protocol: (§1) According to the standard method of the Japanese Chemotherapeutic Society [Chemotherapy, Vol. 23, Pages 1-2 (1975)], a culture obtained by cultivating bacteria in Heart Infusion broth (manufactured by Eken Kagakusha) at 37° C. for 20 hours was inoculated into a Heart Infusion agar medium (manufactured by Eiken Kagakusha) and cultivated at 37° C. for 20 hours, after which the growth of bacteria was examined visually. The minimum inhibitory concentration at which the bacterial growth was inhibited was taken as MIC (μg/ml). The amount of the inoculated bacteria was 10^4 cells/plate (10^6 cells/ml).

[1] = system: E. coli TK3 (Penicillinase-producing bacteria); assay: Antibacterial activity (MIC, agar plate); type: cell-based; details: Escherichia coli; E. coli TK3 (penicillinase-producing); 10^4 cells/plate, 37° C., 20 hours; read-out: MIC
Protocol: as §1

Aci. calcoaceticus A-6 = assay: Antibacterial activity (MIC, agar plate); type: cell-based; details: Acinetobacter calcoaceticus, A6, 10^4 cells/plate, 37° C., 20 hours, read-out: MIC
Protocol: as §1

Pro. mirabilis T-100 = assay: Antibacterial activity (MIC, agar plate); type: cell-based; details: Proteus mirabilis, T100, 10^4 cells/plate, 37° C., 20 hours, read-out: MIC
Protocol: as §1

Ent. cloacae IID977 = assay: Antibacterial activity (MIC, agar plate); type: cell-based; details: Enterobacter cloacae, 10^4 cells/plate, 37° C., 20 hours, read-out: MIC
Protocol: as §1

Al. faecalis B-1 = assay: Antibacterial activity (MIC, agar plate); type: cell-based; details: Alcaligenes faecalis
Protocol: as §1

Pro. mirabilis T-111 = assay: Antibacterial activity (MIC, agar plate); type: cell-based; details: Proteus mirabilis, T111, 20 h
Protocol: as §1

Pro. morganii T-216 = assay: Antibacterial activity (MIC, agar plate); type: cell-based; details: Morganella morganii, T216, 20 h
Protocol: as §1

[2] = system: Pro. vulgaris GN76 (Cephalosporinase-producing bacteria); assay: Antibacterial activity (MIC, agar plate); type: cell-based; details: Proteus vulgaris; Pro. vulgaris GN76 (cephalosporinase-producing); 10^4 cells/plate, 37° C., 20 hours; read-out: MIC
Protocol: as §1

Klebsiella spp Y-72 = assay: Antibacterial activity (MIC, agar plate); type: cell-based
Protocol: as §1

Ser. marcescens IID620 = assay: Antibacterial activity (MIC, agar plate); type: cell-based; details: Serratia marcescens, IID620, 20 h
Protocol: as §1

Kl. pneumoniae Y-41 = assay: Antibacterial activity (MIC, agar plate); type: cell-based; details: Klebsiella pneumoniae, Y41; Kl. pneumoniae Y-41; 10^4 cells/plate, 37° C., 20 hours; read-out: MIC
Protocol: as §1

Kl. pneumoniae Y-50 = assay: Antibacterial activity (MIC, agar plate); type: cell-based; details: Klebsiella pneumoniae, Y50, 10^4 cells/plate, 37° C., 20 hours, read-out: MIC
Protocol: as §1

| SMILES | LD50 (in vivo) [mg/kg] | MIC (E. coli NIHJ) [µg/mL] | MIC [1] [µg/mL] | MIC (Aci. calcoaceticus A-6) [µg/mL] | MIC (Pro. mirabilis T-100) [µg/mL] | MIC (Ent. cloacae IID977) [µg/mL] | MIC (Al. faecalis B-1; B1, Al. faecalis B-1, 10^4 cells/plate, 37° C., 20 hours, read-out: MIC) [µg/mL] | MIC (Pro. mirabilis T-111) [µg/mL] | MIC (Pro. morganii T-216) [µg/mL] | MIC [2] [µg/mL] | MIC (Klebsiella spp Y-72; Y72, Klebsiella spp Y-72, 10^4 cells/plate, 37° C., 20 hours, read-out: MIC) [µg/mL] | MIC (Ser. marcescens IID620) [µg/mL] | MIC (Kl. pneumoniae Y-41) [µg/mL] | MIC (Kl. pneumoniae Y-50) [µg/mL] | MIC (Al. faecalis B-1; B1, 20 h) [µg/mL] | MIC (Klebsiella spp Y-72; Klebsiella, Y72, 20 h) [µg/mL] |
| --- | --- | --- | --- | --- | --- | --- | --- | --- | --- | --- | --- | --- | --- | --- | --- | --- |
| Cc1nnn(CC2=C(C(=O)O)N3C(=O)C(NC(=O)Cc4csc(N)n4)C3SC2)n1 (stereo not drawn) | > 3000 |  |  |  |  |  |  |  |  |  |  |  |  |  |  |  |
| CO/N=C(\C(=O)NC1C(=O)N2C(C(=O)O)=C(Cc3ccc(O)cc3)CSC12)c1csc(N)n1 (stereo not drawn) [D, Trifluoroacetic acid salt of 7-[2-(2-aminothiazol-4-yl)-2-(syn)-methoxyiminoacetamido]-3-(4-hydroxybenzyl)-Δ^3-cephem-4-carboxylic acid] |  | ≤ 0.1 | 1.56 | 6.25 | ≤ 0.1 | 25 | 25 | 0.78 | 0.78 | 1.56 | 6.25 | 3.13 | 0.78 | 0.2 |  |  |
| Cc1nnn(CC2=C(C(=O)O)N3C(=O)C(NC(=O)/C(=N\O)c4csc(N)n4)C3SC2)n1 (stereo not drawn) [E, Trifluoroacetic acid salt of 7-[2-(2-aminothiazol-4-yl)-2-(syn)-hydroxyiminoacetamido]-3-(2-(5-methyl-1,2,3,4-tetrazolyl)methyl]-Δ^3-cephem-4-carboxylic acid] |  | ≤ 0.1 | 0.78 | 50 | ≤ 0.1 | 6.25 |  | 0.39 | ≤ 0.1 | 6.25 |  | 3.13 | 0.2 | ≤ 0.1 | 3.13 | 3.13 |
